Measured values taken from patent US8778874B2, “Glycopeptide antibiotic monomer derivatives” (priority 2004, dated 2014).

Tested on: vancomycin-resistant enterococcus (VRE VanA)
Experiment: In vitro assay of antimicrobial activity: MIC by the microdilution method using cation adjusted Mueller-Hinton broth
Assay type: cell-based
Protocol: In Vitro Assay of Antimicrobial Activity
For several compounds of the invention, minimal inhibitory concentration (MIC) was determined by the microdilution method using cation adjusted Mueller-Hinton broth well known in the art.

[1] = E. faecalis SR7914 (VRE: Van A)

Row | Compound | minimal inhibitory concentration (MIC) [1] | minimal inhibitory concentration (MIC) (E. faecium SR7917 (VRE: Van A))
1 | CNC(CC(C)C)C(=O)NC1C(=O)N[C@@H](CC(N)=O)C(=O)N[C@H]2C(=O)N[C@H]3C(=O)N[C@H](C(=O)N[C@@H](C(=O)O)c4cc(O)cc(O)c4-c4cc3ccc4O)C(O)c3ccc(c(Cl)c3)Oc3cc2cc(c3OC2OC(CO)[C@H](O)C(O)[C@H]2O[C@@H]2CC(C)(NCc3ccc(OCCCNC(=O)c4ccc(C)c(OCc5ccccc5)c4[N+](=O)[O-])cc3)[C@@H](O)C(C)O2)Oc2ccc(cc2Cl)[C@H]1O (stereo partly drawn) [Compound 16] | 4 | 4
2 | CN[C@H](CC(C)C)C(=O)N[C@H]1C(=O)N[C@@H](CC(N)=O)C(=O)N[C@H]2C(=O)N[C@H]3C(=O)N[C@H](C(=O)N[C@H](C(=O)O)c4cc(O)cc(O)c4-c4cc3ccc4O)[C@H](O)c3ccc(c(Cl)c3)Oc3cc2cc(c3O[C@@H]2O[C@H](CO)[C@@H](O)[C@H](O)[C@H]2O[C@H]2C[C@](C)(N)[C@H](O)[C@H](C)O2)Oc2ccc(cc2Cl)[C@H]1O [VCM, vancomycin, reference compound] | >64 | >64
3 | CNC(CC(C)C)C(=O)NC1C(=O)N[C@@H](CC(N)=O)C(=O)N[C@H]2C(=O)N[C@H]3C(=O)N[C@H](C(=O)N[C@@H](C(=O)O)c4cc(O)cc(O)c4-c4cc3ccc4O)C(O)c3ccc(c(Cl)c3)Oc3cc2cc(c3OC2OC(CO)[C@H](O)C(O)[C@H]2O[C@@H]2CC(C)(NCc3cccc(NC(=O)c4ccc(C)c(OCc5ccccc5)c4[N+](=O)[O-])c3)[C@@H](O)C(C)O2)Oc2ccc(cc2Cl)[C@H]1O (stereo partly drawn) [Compound 10] | 2 | 2
